Laboratory results reported in US6596064B2, “Biocidal-antifouling agents with low ecotoxicity index” (Luigi Stoppani S.p.A., priority 1999, dated 2003).

Assays:
[1] = test system: vegetation and micro-organisms (algae, bryozoas, acorn barnacles, polichaetas); assay: Example 3: antifouling paints on fibreglass panels immersed in seawater (dockyard of Genoa), comparison with MSB and Ciclor 98; conditions: for 2^ Controls after a four month exposure: 0.8% in hard-matrix antifouling paint, +Cu2O per Table V (panels P1, P2), seawater, Genoa; for antifouling activity: 5% in paint, not associated with Cu2O (panels P4, P5, N), MBP and MTB more than Ciclor 98 (panel P7); for antifouling effectiveness: in association with Cu2O (panels P1, P2 and P8), synergistic action
Excerpt: The compounds MBP and MTB were examined in different percentages, in hard-matrix antifouling formulations. The tests included the use of Ciclor 98, the use of the menadione sodium bisulphite (MSB) and a control panel (untreated), as is shown in Table V:
The prepared paints were applied to the fibreglass panels previously treated with a coating of epoxy paint and then immersed in seawater (dockyard of Genoa, Italy, 21/7/1999).
To determine the deposition or formation of vegetation and micro-organisms, both qualitatively and quantitatively, and to evaluate the antifouling activity of the samples, two different controls were carried out after two months (1^control) and after 4 months (2^control).

[2] = test system: vegetation and micro-organisms (algae, serpulidae, acorn barnacles, bryozoas); assay: Example 1: antifouling paints on fibreglass panels immersed in seawater (dockyard of La Spezia); conditions: 5% in hard-matrix antifouling paint, +Cu2O (panels P34, P35)
Excerpt: The compounds MBP and MTB were examined in different percentages, singularly and/or in combination, in hard-matrix antifouling formulations containing or not containing copper, as reported in Table I:
(§1) The different paints were applied to the fibreglass panels previously treated with a coating of epoxy paint and then immersed in seawater (dockyard of La Spezia, Italy, 9/5/2000). To determine the deposition or formation of vegetation and micro-organisms, both qualitatively and quantitatively, and to evaluate the antifouling activity of the samples, two different controls were carried out after two months (1^control) and after six months (2^control).

[3] = test system: vegetation and micro-organisms (algae, bryozoas, acorn barnacles, polichaetas); assay: Example 2: antifouling paints on fibreglass panels immersed in seawater (dockyard of Genoa), comparison with Ciclor 98; conditions: for 2^ Controls after a four month exposure: 5% in hard-matrix antifouling paint, no copper (panels P2, P3, P4), seawater, Genoa; for antifouling activity compared to commercial antifouling product Ciclor 98: hard-matrix paints, no copper, seawater Genoa
Excerpt: The compounds MBP and MTB were examined in different percentages, in hard-matrix antifouling formulations. The tests included the use of a common commercial antifouling product, Ciclor 98, which contains […] as active ingredient, largely used in the formulation of yatch paints, and a control panel (untreated, without biocide), as it is shown in Table III:
as §1, with “The prepared” for “The different”, “of Genoa,” for “of La Spezia,”, “Italy, 21/7/1999).” for “Italy, 9/5/2000).”, “after 4” for “after six”

Row | SMILES | 2^ Controls after a four month exposure [1] | antifouling activity [1] | antifouling effectiveness [1] | 2^ Control after a six month exposure [2] | 2^ Controls after a four month exposure [3] | antifouling activity compared to commercial antifouling product Ciclor 98 [3]
1 | C1CNCCN1.CC1(S(=O)(=O)O)CC(=O)c2ccccc2C1=O.CC1(S(=O)(=O)O)CC(=O)c2ccccc2C1=O (stereo not shown) [MBP, menadione (bis) piperazine bisulfite] | Clean | excellent antifouling activity | excellent antifouling effectiveness | A few green algae | Clean | increased antifouling activity
2 | CC1(S(=O)(=O)O)CC(=O)c2ccccc2C1=O.Nc1nc(N)nc(N)n1 (stereo not shown) [MTB, menadione triaminotriazine bisulfite] | Clean | excellent antifouling activity | excellent antifouling effectiveness | A few green algae | Clean | increased antifouling activity
3 | CC1(S(=O)(=O)[O-])CC(=O)c2ccccc2C1=O.[Na+] (stereo not shown) [MSB, menadione sodium bisulphite, reference compound] |  | did not show any antifouling activity |  |  |  | 
